Experimental data: patent publication US20250027954A1, “METHODS OF DETECTING AND TREATING CEREBRAL ANEURYSMS” (UNIVERSITY OF PITTSBURGH-OF THE COMMONWEALTH SYSTEM OF …, priority 2022, published 2025)
“Also recorded” adds a separate entry of the source.

Legend:
[1] = test system: murine cerebral aneurysm model; experiment: Mouse intracranial aneurysm model: aneurysm formation; format: in vivo, mouse (C57BL/6); details: controls 57%, n=6 and 7
Method: Mouse intracranial aneurysm model. Murine intracranial aneurysms were created in female 8-12 week-old C57BL/6 mice (Charles River Laboratories, Wilmington, MA) following established protocols. Briefly, the left common carotid artery and the right renal artery are ligated to induce hypertension. One week later, an Alzet micro-osmotic pump model 1004 (DURECT Corp, Cupertino, CA) was implanted subdermally to deliver Angiotensin II (Bachem AG, Switzerland) at 1000 ng/kg/min; and 10 μL of 0.8% porcine elastase (Worthington Biochemical Corp, Lakewood, NJ) in normal saline was injected into the right basal cistern using stereotactic coordinates: 1.2 mm rostral of bregma, 0.7 mm lateral of midline and 5.3 mm ventral of the dorsal aspect of the skull. The animals were fed a hypertensive diet with 8% NaCl and 0.12% BAPN (TEKLAD). PBS-treated animals received […] injection of phosphate buffered saline subcutaneously every two days. […] All animal experimentation was performed under the Institutional Animal Care and Use Committee-approved protocols of the University of Pittsburgh.

[2] = test system: cytokine expression in aneurysm-induced cerebral vasculature; experiment: Mouse cytokine arrays (96 cytokines) of aneurysm-induced cerebral vasculature; format: in vivo, mouse (C57BL/6); details: treated aneurysmal mice vs PBS-treated aneurysmal mice or sham surgery controls; n=3 each
Method: Temporal analysis and comparison with pharmacologic treatment were performed.
Mouse cytokine Arrays. Raybiotech cytokine arrays C1000 (AAM-CYT-1000, Raybiotech, Peachtree Corners, GA) were used to analyze 96 cytokines in aneurysm-induced cerebral vasculature at 2 and 3 weeks (n=3 each) and compared with reparixin-, clopidogrel-treated animals, and with sham surgery animals as controls (n=2).

SMILES | aneurysm formation (mice that developed aneurysms) ([1]; 10 mg/kg reparixin, p=0.0163) [%] | effect on cytokine expression / inflammatory profile in aneurysmal mice (heatmap, FIG. 4A) [2] | aneurysm formation (mice that developed aneurysms) ([1]; 1 mg/kg clopidogrel, p<0.001) [%]
CC(C)Cc1ccc([C@@H](C)C(=O)NS(C)(=O)=O)cc1 [reparixin] | 14 | vastly attenuated inflammatory profile; also recorded: robust anti-inflammatory effects | –
COC(=O)[C@H](c1ccccc1Cl)N1CCc2sccc2C1 [clopidogrel] | – | moderate response | 0
